This note sets out measurements from patent US20240207327A1, “COMPOSITION INCLUDING PROPOLIS AND SORBUS COMMIXTA AS ACTIVE INGREDIENTS FOR ALLEVIATING AND TREATING INFLAMMATORY DISEASES AND ALLERGIC DISEASES” (Andong National University Industry-Academic Cooperation …, priority 2022, published 2024).

In series [1] the test system is RAW 264.7 cell line. Nature of the series: Nitric oxide (NO) production assay in LPS-treated RAW 264.7 (Griess reagent). The series is classed as cell-based, mouse. As to conditions: for NO production rate compared with control / NO production, combined treatment / NO production compared to the control: LPS 100 ng/mL; for NO production rate compared with control / NO production compared to the control: independent treatment; for NO production rate compared with control: 10 μg/mL; for inhibitory effect on NO production (in words): LPS-induced RAW 264.7, independent treatment. As to the method: (§1) RAW 264.7 cell line, a mouse macrophage cell line was purchased from KCLB (Korean Cell Line Bank, Korea). After RAW 264.7 was added with 10% fetal bovine serum (FBS, GIBCO, USA) and 1% antibiotics-antimycotic (GIBCO, USA), the cell was subcultured in Dulbecco's modified Eagle's medium (DMEM, WELGENE, Korea) in a 37° C., 5% CO2 incubator (Thermo Fisher Inc., USA).
After RAW 264.7 cell line was independently treated with any one of the flavonoid componentsor Sorbus commixta extract, and was combinedly treated with any one of the flavonoid components and the Sorbus commixta extract, an evaluation of Nitric Oxide production (NO assay) was conducted to identify effects on NO secretion induced by LPS.
At this time, RAW 264.7 cells were seeded at 1×10^5 cells/well in 96-well plates and cultured in a 37° C., 5% CO2 incubator for 24 hours. Each cell was pretreated with samples by concentration (pinocembrin, quercetin, kaempferol, glangin, and chrysin at concentrations of 1, 2.5, 5, and 10 μg/mL, caffeic acid and p-Coumaric acid at concentrations of 2.5, 5, 10, and 25 μg/mL, and Sorbus commixta ethanol extract at concentrations of 25, 50, 100, and 250 ppm), respectively, and then the cells were treated with LPS (Sigma-Aldrich Inc, USA) to a final concentration of 100 ng/mL to induce the inflammatory response for 20 hours. After the induction of the inflammatory response, a 100 μL supernatant of a 96-well plate was added with a 100 μL Griess reagent (Sigma-Aldrich Inc., USA) at a concentration of 40 mg/mL (in water), and reacted in the dark for 15 minutes, and the optical density was measured at 540 nm using a Tecan infinite 200 microplate reader (Tecan Trading AG, Switzerland). A quantitative line was drawn using Sodium nitrite (Sigma-Aldrich Inc., USA), and each value of optical density was substituted to the quantitative line to determine the amount of produced Nitric Oxide (NO).
In the inflammatory response of macrophages induced by LPS treatment, the treatment effects of any one of the flavonoid components or Sorbus commixta ethanol extract on NO production were determined.

The test system of series [2] is RBL-2H3 basophilic cell line. Nature of the series: beta-Hexosaminidase release assay (degranulation by anti-DNP-IgE / DNP-BSA). In kind it is cell-based, Rat. Particulars: for beta-Hexosaminidase released compared to the positive control / degree of degranulation of RBL-2H3 cells (in words): independent treatment; for beta-Hexosaminidase released compared to the positive control: 1 hour pretreatment. As to the method: Effects of quercetin, kaempferol, chrysin, and Sorbus commixta ethanolic extract on allergic response were determined by measuring the release of beta-Hexosaminidase through degranulation caused by the antibody-antigen binding in the RBL-2H3 basophilic cells. The RBL-2H3 basophilic cell line of Rat was purchased from ATCC (American Type Culture Collection, USA), and then it was added with a 10% fetal bovine serum and a 1% antibiotics-antimycotic in Dulbecco's modified Eagle's medium, and was subcultured in a 37° C., 5% CO2 incubator. A beta-Hexosaminidase release assay was carried out to figure out effects of independent treatment of any one of the flavonoid components or the Sorbus commixta ethanolic extract, and combined treatment of any one of the flavonoid components (quercetin, kaempferol, chrysin) with Sorbus commixta ethanolic extract on the release of beta-Hexosaminidase through the degranulation of RBL-2H3 basophilic cell line. The RBL-2H3 cells were seeded at 8×10^4 cells/well in the 96 well plates, and stabilized in a 37° C., 5% CO2 incubator for 3 hours, then treated with anti-DNP-IgE (Sigma-Aldrich Inc., USA) to a final concentration of 250 ng/mL for cell sensitization, and incubated for 24 hours. After culturing, the supernatant liquid was removed and washed twice with Siraganian buffer (NaCl 119 mM, KCl 5 mM, Glucose 5.6 mM, PIPES 25 mM, MgCl2, 0.4 mM, CaCl2 1 mM, BSA 0.1%, pH 7.2, Biosolution, Korea), and concentration-specific samples dissolved in Siraganian buffer were pretreated into the cells for 1 hour. After the pretreatment, the final concentration of DNP-BSA (Sigma-Aldrich Inc., USA) was treated to be at 150 ng/mL, and cultured for 1 hour to induce degranulation. After degranulation induction, 80 μL of supernatant and 20 μL of 10 mM 4-Nitrophenyl N-acetyl-β-D-glucosaminide (in 0.1 M citrate buffer, pH 4.5, Sigma-Aldrich Inc., USA) were reacted in the 96 well plate for 4 hours at a 37° C. incubator. After 4 hours, the reaction was terminated by adding 100 μL of 0.5 M sodium carbonate, and the optical density was measured at 405 nm using a Tecan infinite 200 microplate reader. First, RBL-2H3 cells' degranulation induced by antibody-antigen binding was determined when independently treated with any one of the flavonoid components or Sorbus commixta ethanolic extract. RBL-2H3 cells were sensitized with antibodies for one day, pretreated with different concentration levels of 3 selected flavonoid components, or Sorbus commixta ethanol extract for one hour, followed by additionally being treated with antigens. A group treated with neither the extract nor the antigen was a negative control, and a group independently treated with ethanol as the solvent for the sample and induced for degranulation only was a positive control. When RBL-2H3 cell degranulation is induced by antibody-antigen binding, beta-Hexosaminidase, an indicator of early response is released. On top of that, a substrate addition (P-NAG) leads to the degradation of the substrate and the suspension of the degradation reaction, resulting in a color change. In that case, the amount of beta-hexosaminidase may be determined by measuring the optical density, which may it possible to compare the degree of induced inhibition or induced activation of degranulation. The changes in the amount of beta-Hexosaminidase released by the combined treatment of the Sorbus commixta ethanolic extract with any one of the three selected active ingredients of the flavonoid components were intended to be determined. A group treated with neither the extract nor the antigen was a negative control, and a group independently treated with ethanol as the solvent for the sample and induced for degranulation only was a positive control.

Series [3] concerns RAW 264.7 cell line. Nature of the series: MTT cell viability assay, RAW 264.7. Particulars: mouse, 24 h, 10 μg/mL. The series is classed as cell-based. As to the method: as §1
A cell viability rate was analyzed by carrying out an MTT assay in order to determine the toxicity of the flavonoid components and Sorbus commixta ethanolic extract on the cell line treatment. The RAW 264.7 cell line was seeded 5×10^4 cells/well in a 96 well plate, and cultured in a 37° C., 5% CO2 incubator. After the culture, the flavonoid components and Sorbus commixta ethanolic extract were treated and additionally treated for the next 24 hours. After the additional culture, a 0.1 mg/mL MTT solution (Sigma-Aldrich Inc., USA) was dispensed in each well, the cells were cultured for 4 hours before the supernatant was removed. The resulting formazan was dissolved by seeding 100 μL of DMSO (Sigma-Aldrich Inc., USA) into each well, followed by orbital shaking (87.9 rpm) for 15 minutes, and optical density was measured at 540 nm using a Tecan infinite 200 microplate reader. The measured values of optical density were described as a percentage by substituting into the equation below. […]

Where [4] appears, read: flavonoid 1 μg/mL (first of series) combined with Sorbus commixta ethanol extract.
Where [5] appears, read: flavonoid 2.5 μg/mL (second of series) combined with Sorbus commixta ethanol extract.
[6] abbreviates: flavonoid 5 μg/mL (third of series) combined with Sorbus commixta ethanol extract.
[7] abbreviates: flavonoid 10 μg/mL (fourth of series) combined with Sorbus commixta ethanol extract.
The mark [8] stands for this setting: 1 μg/mL (first of series 1, 2.5, 5, 10 μg/mL).

Take `O=C(O)/C=C/c1ccc(O)c(O)c1` [caffeic acid]: in the series with RAW 264.7 cell line [1], the “NO production rate compared with control” value is given as 97%.

For `O=c1cc(-c2ccccc2)oc2cc(O)cc(O)c12` [chrysin], the “production rate of beta-Hexosaminidase compared to the control group” value (shortened to “production rate … compared to the control group”) in series [2] (1 μg/mL mixed with 25 ppm of Sorbus commixta ethanol extract) worked out at 95.9%. The “beta-Hexosaminidase released compared to the positive control” value in series [2] (1 μg/mL) is listed as 83%. Further, the “NO production, combined treatment” value in the series on RAW 264.7 cell line [1] (setting [4]) came to 72%; in the series with RAW 264.7 cell line [1] (setting [5]), 55%; in the series on RAW 264.7 cell line [1] (setting [6]), 38%; with RAW 264.7 cell line [1] (setting [7]), 9%. Also, the “NO production compared to the control” value in the series with RAW 264.7 cell line [1] (setting [8]) stood at 89%; in the series on RAW 264.7 cell line [1] (2.5 μg/mL (second of series)) it was 74%; in the series with RAW 264.7 cell line [1] (5 μg/mL (third of series)), 43%. Moreover, the “NO production rate compared with control” value in the series on RAW 264.7 cell line [1] was 10%.

For the compound `O=c1c(O)c(-c2ccccc2)oc2cc(O)cc(O)c12` [galangin], the cell viability rate entry in the series on RAW 264.7 cell line [3] was “greater than 80%”. In addition, in the series on RAW 264.7 cell line [1], the “NO production rate compared with control” value turned out to be 82%.

As to `O=c1c(O)c(-c2ccc(O)cc2)oc2cc(O)cc(O)c12` [kaempferol], the “production rate … compared to the control group” value in series [2] (2.5 μg/mL mixed with 25 ppm of Sorbus commixta ethanol extract) is reported as 79.8%. Moreover, in series [2], the “degree of degranulation of RBL-2H3 cells (in words)” value is “decreased the degree of degranulation”. For the same compound, the “beta-Hexosaminidase released compared to the positive control” value in series [2] (0.5 μg/mL) came out at 85%. Besides, the “NO production, combined treatment” value was determined as 75% in the series with RAW 264.7 cell line [1] (setting [4]), 71% in the series on RAW 264.7 cell line [1] (setting [5]), 60% in the series with RAW 264.7 cell line [1] (setting [6]) and 39% with RAW 264.7 cell line [1] (setting [7]). Also, the results for the “NO production compared to the control” value in the series on RAW 264.7 cell line [1] (setting [8]), with RAW 264.7 cell line [1] (2.5 μg/mL (second of series)) and in the series with RAW 264.7 cell line [1] (5 μg/mL (third of series)) were 92%, 85% and 66%, respectively. The “NO production rate compared with control” value with RAW 264.7 cell line [1] is given as 42%. Besides, the “inhibitory effect on NO production (in words)” value in the series with RAW 264.7 cell line [1] is “highest inhibitory effect on NO production”.

On to `O=c1c(O)c(-c2ccc(O)c(O)c2)oc2cc(O)cc(O)c12` [quercetin], for which, in series [2] (0.5 μg/mL mixed with 25 ppm of Sorbus commixta ethanol extract), the “production rate … compared to the control group” value came out at 86.8%. Further, the “degree of degranulation of RBL-2H3 cells (in words)” value in series [2] was “decreased the degree of degranulation”. Besides, the “beta-Hexosaminidase released compared to the positive control” value in series [2] (0.5 μg/mL) is 64%. Besides, the “NO production, combined treatment” value came out at 78% in the series on RAW 264.7 cell line [1] (setting [4]), 70% in the series on RAW 264.7 cell line [1] (setting [5]), 55% in the series with RAW 264.7 cell line [1] (setting [6]) and 39% in the series with RAW 264.7 cell line [1] (setting [7]). The “NO production compared to the control” value was determined as 97% with RAW 264.7 cell line [1] (setting [8]), 81% in the series with RAW 264.7 cell line [1] (2.5 μg/mL (second of series)) and 63% with RAW 264.7 cell line [1] (5 μg/mL (third of series)). In the series on RAW 264.7 cell line [1], the “NO production rate compared with control” value was found to be 41%. In addition, the “inhibitory effect on NO production (in words)” value in the series on RAW 264.7 cell line [1] was “highest inhibitory effect on NO production”.

With `O=C1C[C@@H](c2ccccc2)Oc2cc(O)cc(O)c21` [pinocembrin], in the series on RAW 264.7 cell line [3], the cell viability rate result is “greater than 80%”. Moreover, the “NO production rate compared with control” value with RAW 264.7 cell line [1] was found to be 90%.

Turning to “p-coumaric acid (4-Hydroxycinnamic acid)”, the “NO production rate compared with control” value in the series on RAW 264.7 cell line [1] was 90%.
